Measured values published in patent US9126060B2, “Cosmetic use of geranylgeranyl-2-propanol” (SEDERMA, priority 2010, dated 2015).

Legend:
[1] = ORAC test (Oxygen-Radical Absorbance Capacity): fluorescein degradation by peroxyl radicals; assay type: biochemical; details: n = 6
Source text: Principle: the ORAC test (“Oxygen-Radical Absorbance Capacity”) measures degradation by the oxidative way of a fluorescent molecule (fluorescein). Degradation of fluorescein by peroxyl radicals generated by AAPH (2,2′-azobis (2-amidinopropane) dichloride) induces a decrease in fluorescence measured by a spectrofluorometer during a degradation kinetic.
An antioxidant protects this fluorescein against this radical degradation. The decrease in fluorescence will be smaller and slower in the presence of the antioxidant than in its absence. The comparison between the parameters of the two kinetics makes it possible to calculate a percentage of protection against free radical degradation.

[2] = Lipidic peroxidation of liposomes by UVA (conjugated dienes at 233 nm); assay type: biochemical
Source text: Principle: Cell membranes are composed of oxidable phospholipids. Using a cell-free model (unsaturated phospholipids based liposomes) and a reproducible oxidative stress (UVA radiation), it is possible to follow spectrophotometrically (at 233 nm) the formation of early by-products of lipoperoxidation that are conjugated dienes. An anti-lipoperoxidant agent can reduce or even eliminate this phenomenon.

fibroblasts (FHN) = assay: Intracellular peroxide level (DCFH-DA probe) in fibroblasts after SIPS; assay type: cell-based, human; details: 3 ppm
Procedure: Principle: Fibroblasts at confluence contacted or not with the GGP for several days, are subjected to oxidative stress by hydrogen peroxide in the presence or absence of the GGP. This stress is intended to induce premature senescence in cells.
After this initial stress, the cells were detached from the support and returned to culture at low density until confluence. They are then contacted or not with the compound of the invention for 24 hours. At this stage, each set of cultures (with or without the tested compounds) is divided into 2 lots. A first batch (not stressed) is evaluated directly for its concentration of intracellular peroxides (using the probe DCFH-DA). Simultaneously, the other batch (stressed) undergoes a second stress by hydrogen peroxide (weaker than the first) just before being evaluated in the same way regarding the concentration of intracellular peroxides.
The amount of fluorescence measured with this probe is directly proportional to the amount of peroxides present in the cells.

presenescent fibroblasts = assay: Mitochondrial membrane potential of presenescent fibroblasts (dye ratio λ520/λ590); assay type: cell-based; details: for Improvement of the respiration potential / Change with regard to non stressed young cells: with oxidative stress; for Change with regard to non stressed young cells: control −100%
Source text: It is possible to measure the membrane potential through a specific membrane dye. Depending on the level of the membrane potential, this dye is rather present as monomer (emission fluorescence at 520 nm) or rather in the multimetric form (fluorescence emission at 590 nm). High membrane potential promotes a multimetric form.
The ratio λ520/λ590 varies inversely with the membrane potential. The lower the ratio is, the higher the membrane potential is. The increase in the ratio thus reflects a decrease in membrane potential. The ratio λ520/λ590 for young and proliferating cells is 2.97+/−0.17.
[…] After this period, the membrane potential of half of the cultures was measured.
The other half of the cultures underwent an oxidative stress (hydrogen peroxide) before measuring their membrane potential.

β-galactosidase = assay: Cell-free β-galactosidase inhibition check; assay type: biochemical; details: cell-free system
fibroblasts = assay: DNA array gene expression on fibroblasts; assay type: cell-based
hyaluronic acid = assay: Hyaluronic acid synthesis in human fibroblasts; assay type: cell-based; details: for hyaluronic acid (AH): 24 hours, n = 5
Procedure: Principle: Human dermal fibroblasts were grown in plate for 24 hours. The cells are then placed in contact or not with GGP for 24 hours. Culture supernatants were collected and assayed for the amount of hyaluronic acid (HA) is then divided by the number of cells present on the layer. TGF-β1 is used as a positive control.

human dermal fibroblasts = assay: Collagen gel contraction by human dermal fibroblasts cultivated until presenescence; assay type: cell-based; details: for Gel heterogeneity / Gel surface: n = 5
Source text: Principle: Proliferative human dermal fibroblasts were cultivated with or without the GGP over several generations to obtain presenescent cells. A constant number of cells from each case was then included in a collagen gel. The contractile capacity of cells was then followed by using photographs. Quantification by image analysis, focused on the intensity of the contraction (gel surface) and the contraction quality (gel heterogeneity).

syndecan 1 = assay: Syndecan 1 synthesis in NHK supernatants (ELISA); assay type: cell-based, human; details: for Syndecan 1: 48 h, n = 3
Procedure: Principle: Human keratinocytes (NHK) are cultivated in a growth medium. After 6 days of incubation, the cells are contacted or not with the tested products (GGP and GGA) at 3, 5 or 7 ppm for 48 h. After incubation, the supernatants are taken and the syndecan 1 content is assayed by ELISA in these supernatants. The cell layers are sonicated and the cell number is evaluated by Hoechst method.

Keratinocytes = assay: Keratinocyte culture survival and recovery after UVB stress (cell count); assay type: cell-based; details: for Cell number, mean (n = 3): UVB 50 mJ/cm^2, six days later
Procedure: Keratinocytes in monolayer, after an UVB radiation (12 to 240 mJ/cm^2), develop on their surface many burgeons, detach from the culture medium, undergo damages up to death. A cell count at various times after UVB radiation is used to evaluate the cell viability of the culture. This model is widely used in cosmetics to evaluate the protective effect of various compounds against the deleterious effects of UVB stress.
Principle: Keratinocytes were cultured in 35 mm dish. Just at confluence, the cells are contacted or not with the GGP for 24 hours. UVB irradiation (50 mJ/cm^2) is performed the next day, and the cells are or not contacted with the GGP. Six days later, the cells are counted to determine the cell viability in culture.

nidogen 1 = assay: Nidogen 1 biosynthesis in fibroblast culture (ELISA); assay type: cell-based, human; details: 3 days, n = 5
Procedure: Principle: Normal human fibroblasts were brought to confluence, then placed or not in contact with the GGP, at 1 or 2.5 ppm, for 3 days. After this incubation the nidogen 1 content is determined by ELISA in cell homogenates, and divided by the number of cells.

[3] = after 3, 6 and 24 hours of contact
[4] = after 6 and 24 hours of contact

Question: Which “% of protection” value ([1]; 10 ppm) does the source give for CC(C)=CCC/C(C)=C/CC/C(C)=C/CC/C(C)=C/CCC(C)O (stereo not drawn) [GGP, 6,10,14,18-tetramethylnonadeca-5,9,13,17-tetraen-2-ol] here?
Answer: 56%

Question: What about the “% of protection” value ([1]; 50 ppm) of the same molecule?
Answer: 68%

Question: And the “% of protection” value ([1]; 200 ppm)?
Answer: 77%

Question: And the “% of protection” value ([1]; 400 ppm)?
Answer: 87%

Question: And the “% of peroxidation inhibition” value ([2]; 8 ppm)?
Answer: 14%

Question: And the “% of peroxidation inhibition” value ([2]; 26 ppm)?
Answer: 24%

Question: What about the “% of peroxidation inhibition” value ([2]; 80 ppm) of the same molecule?
Answer: 75%

Question: And the Endogen peroxides (fibroblasts (FHN); SIPS fibroblasts subjected to a second oxidant stress)?
Answer: 161 +/− 14 UFA/million of cells

Question: And the “% Change/Control of endogen peroxides” value (fibroblasts (FHN); after SIPS, not stressed again)?
Answer: −40%; p < 0.01

Question: What about the Endogen peroxides (fibroblasts (FHN); after SIPS, not stressed again) of the same molecule?
Answer: 61.2 +/− 2.6 UFA/million of cells

Question: What about the “% of protection of the respiration potential” value (presenescent fibroblasts; 3 ppm, no stress) of the same molecule?
Answer: +22%; nsd

Question: What about the “ΔΨ loss with regard to non stressed young cells” value (presenescent fibroblasts; 3 ppm, one week, no stress) of the same molecule?
Answer: 1.11 +/− 0.33

Question: And the “Improvement of the respiration potential” value (presenescent fibroblasts; 3 ppm)?
Answer: +35%; p < 0.05

Question: What about the “ΔΨ loss with regard to non stressed young cells” value (presenescent fibroblasts; 3 ppm, with oxidative stress (hydrogen peroxide)) of the same molecule?
Answer: 3.57 +/− 0.69

Question: And the “Change with regard to non stressed young cells” value (presenescent fibroblasts; 3 ppm)?
Answer: −65%

Question: What about the “% of protection of the respiration potential” value (presenescent fibroblasts; 5 ppm, no stress) of the same molecule?
Answer: +41%; p < 0.01

Question: What about the “ΔΨ loss with regard to non stressed young cells” value (presenescent fibroblasts; 5 ppm, one week, no stress) of the same molecule?
Answer: 0.84 +/− 0.08

Question: And the “Improvement of the respiration potential” value (presenescent fibroblasts; 5 ppm)?
Answer: +63%; p < 0.01

Question: And the “ΔΨ loss with regard to non stressed young cells” value (presenescent fibroblasts; 5 ppm, with oxidative stress (hydrogen peroxide))?
Answer: 2.03 +/− 0.69

Question: What about the “Change with regard to non stressed young cells” value (presenescent fibroblasts; 5 ppm) of the same molecule?
Answer: −37%

Question: And the “inhibition of β-galactosidase” value (β-galactosidase)?
Answer: not an inhibitor of β-galactosidase

Question: What about the “gene expression of actin gamma 2 (ACTG2)” value (fibroblasts; [3]) of the same molecule?
Answer: increase in gene expression

Question: And the “gene expression of filament associated actin protein (AFAP1L1)” value (fibroblasts; [3])?
Answer: increase in gene expression

Question: And the “gene expression of hyaluronic acid synthase 2” value (fibroblasts; [3])?
Answer: increase in gene expression

Question: What about the “expression of JMJD6 gene” value (fibroblasts; [4]) of the same molecule?
Answer: increased expression

Question: And the “expression of PLOD2 gene” value (fibroblasts; [4])?
Answer: increased expression

Question: What about the “% of change of hyaluronic acid vs control” value (shortened to “% of change … vs control”) (hyaluronic acid; 3 ppm) of the same molecule?
Answer: +23%

Question: And the “hyaluronic acid (AH)” value (hyaluronic acid; 3 ppm)?
Answer: 5322 +/− 157 ng of AH/10^6 cells

Question: And the “% of change … vs control” value (hyaluronic acid; 5 ppm)?
Answer: +33%

Question: And the “hyaluronic acid (AH)” value (hyaluronic acid; 5 ppm)?
Answer: 5758 +/− 82 ng of AH/10^6 cells

Question: What about the “% of change … vs control” value (hyaluronic acid; 7 ppm) of the same molecule?
Answer: +41%

Question: And the “hyaluronic acid (AH)” value (hyaluronic acid; 7 ppm)?
Answer: 6101 +/− 320 ng of AH/10^6 cells

Question: And the “% of change … vs control” value (hyaluronic acid; 10 ppm)?
Answer: +46%

Question: And the “hyaluronic acid (AH)” value (hyaluronic acid; 10 ppm)?
Answer: 6331 +/− 365 ng of AH/10^6 cells

Question: What about the “% change of gel surface vs control” value (human dermal fibroblasts; 3 ppm) of the same molecule?
Answer: −17.5%; p < 0.01

Question: And the Gel heterogeneity (human dermal fibroblasts; 3 ppm)?
Answer: 22.9 +/− 4.1 UA

Question: What about the Gel surface (human dermal fibroblasts; 3 ppm) of the same molecule?
Answer: 6.12 ± 1.94 cm^2

Question: And the “% change of gel surface vs control” value (human dermal fibroblasts; 5 ppm)?
Answer: −21.5%; p < 0.01

Question: And the Gel heterogeneity (human dermal fibroblasts; 5 ppm)?
Answer: 21.8 +/− 3.6 UA

Question: What about the Gel surface (human dermal fibroblasts; 5 ppm) of the same molecule?
Answer: 5.82 ± 1.69 cm^2

Question: What about the “Change (%) of syndecan 1 vs control” value (syndecan 1; 3 ppm) of the same molecule?
Answer: +96%; p < 0.01

Question: And the “Syndecan 1” value (syndecan 1; 3 ppm)?
Answer: 135.3 +/− 6.3 pg/10^6 cell

Question: And the “Change (%) of syndecan 1 vs control” value (syndecan 1; 5 ppm)?
Answer: +190%; p < 0.01

Question: What about the “Syndecan 1” value (syndecan 1; 5 ppm) of the same molecule?
Answer: 200.6 +/− 15.8 pg/10^6 cell

Question: And the “Syndecan 1” value (syndecan 1; 7 ppm)?
Answer: 265.5 +/− 24.3 pg/10^6 cell

Question: And the “% change/control of cell number” value (Keratinocytes; 1 ppm)?
Answer: +31%

Question: What about the “Cell number, mean (n = 3)” value (Keratinocytes; 1 ppm) of the same molecule?
Answer: 4.83 ×10^5/35 mm dish

Question: And the “% change/control of cell number” value (Keratinocytes; 1.65 ppm)?
Answer: +38%

Question: And the “Cell number, mean (n = 3)” value (Keratinocytes; 1.65 ppm)?
Answer: 5.08 ×10^5/35 mm dish

Question: What about the “Stimulation % of nidogen 1 biosynthesis” value (nidogen 1; 1 ppm) of the same molecule?
Answer: +28%

Question: What about the “Stimulation % of nidogen 1 biosynthesis” value (nidogen 1; 2.5 ppm) of the same molecule?
Answer: +94%
